The test system of one test is cut flower. As to conditions: storage solution containing the compound; cited from earlier work.
Test [1] has as its system plants grown from seed (5 seeds per plot). Briefly: Plant feeding with ribose for growth (Table 1). In kind it is in vivo, Hosta (H. plantaginea grandiflora). The source says: (§1) Hosta (H. plantaginea grandiflora) plants were transplanted. The protocol was designed such that half of the plants were supplied with water alone and half of the plants received a ribose based solution, in which powdered D-ribose was mixed in water. All plants were transplanted at the same level in the soil and in like soil. All plants were watered at the same times of day, mid-morning and at dusk. Each plant received the same amount of water/watering (½ liter water at each watering). Results of plant growth data following transplantation are graphically depicted in FIGS. 1 and 2. [table]

The next test relates to kohlrabi (K). Nature of the test: Transplants in garden, growth and hardening after transplantation: kohlrabi. It is filed as in vivo.
Text: as §1

Another test concerns beans (B). Briefly: Transplants in garden, growth and hardening after transplantation: beans. In kind it is in vivo, bean.
Text: as §1

Test [2] concerns bean seeds. Briefly: Root growth assessment (Example 3). It is filed as in vivo. As to conditions: Week 1 following seed implantation. The source says: Identical sized pots, containing the same consistency of soil media, were used in assessing root growth. Bean seeds of similar size were chosen. One seed was planted in each pot. The depth in the soil for each seed that was planted was the same. Paired pots (total of 3 pairs, 6 pots), each containing one bean seed, were used. One pair of pots received 2 teaspoons of water every other day (Group A). The second pair of pots received a low Ribose solution (1 teaspoon of D-ribose in 16 oz of water), each pot received 2 teaspoons of this low dose of Ribose every other day (Group B). The final pair of pots received a higher dose of Ribose (1 teaspoon of D-ribose in 4 oz of water), each pot received 2 teaspoons of this higher dose of Ribose every other day (Group C). In each pair of pots, roots were examined at week 1 and 2, by removing the roots of one pot only in each group at the designed test time point with soil emersion in a bucket of water. At week 2 all remaining pots had shoots emerging from the top soil. The roots were weighed and measured for length. […] This discrepancy expanded when the roots were analyzed at 2 weeks. […] The weight of the roots treated with high dose Ribose were appreciably less in weight than both the water and low dose Ribose treated groups.

Test [3] deals with bean seeds. Briefly: Fertilization with ribose combined with nitrogen, phosphorus, potassium. In kind it is in vivo. As to conditions: ribose combined with the fertilizers nitrogen, phosphorus, and potassium. The procedure: D-ribose plus nitrogen, nitrogen alone, or placebo was administered to bean seeds and measurements of growth and yield was made as in Example 2. D-ribose plus phosphorus, phosphorus alone, or placebo was administered to bean seeds and measurements of growth and yield was made as in Example 2. D-ribose plus potassium, potassium alone, or placebo was administered to bean seeds and measurements of growth and yield was made as in Example 2. D-ribose plus the combination, the combination alone, or placebo was administered to bean seeds and measurements of growth and yield was made as in Example 2.

Setting [4] is: 29-Sep, first measure after transplant.

Where “and” joins values, the source holds several entries; their conditions need not be identical. Identical values can stand only once.

As for `CCSC[C@@H](O)[C@@H](O)[C@@H](O)C=O` [5-deoxy-5-ethylthio-D-ribose], the “Bloom life of a cut flower” value in the test on cut flower was “extend bloom life”.

`O=C[C@H](O)[C@H](O)[C@H](O)CO` [R4, ribose]: the “Plant measures, Mean” value turned out to be 8.45 inches in test [1] (23 June, 5 seeds per plot) and 11.1 inches in test [1] (Measured 8 July). In test [1] (23 June, of 5 seeds per plot), this molecule showed an Unsprouted of 0. Moreover, the “Plant measures, measured to the Y, single plants” value in test [1] (23 June, planted 4 June, 2 tablespoons every other day (3x per week)) is 6.5 inches and 8 inches and 8.25 inches and 9.5 inches and 10 inches; in test [1] (Measured 8 July) it was 8.75 inches and 10 inches and 10.5 inches and 11.75 inches and 12 inches. Besides, the “#Plants/blossom” value in test [1] (Measured 8 July) was found to be 5. Moreover, the Kohlrabi plant measure in the test with kohlrabi (K) (1-Nov, after transplant) was 16.5 and 19 and 22 and 21 and 15; with kohlrabi (K) (9-Sep, before moving) it was 12 and 13 and 17 and 11; in the test on kohlrabi (K) (19-Oct, after transplant) it was 15 and 18 and 19.5 and 20 and 14.5; with kohlrabi (K) (setting [4]), 14 and 16 and 19 and 19.5 and 13. The “Bean measure to the Y” value was 10 cm and 13 cm with beans (B) (1-Nov, after transplant); 6 cm and 8 cm in the test with beans (B) (9-Sep, before moving); 8.75 cm and 12 cm in the test with beans (B) (19-Oct, after transplant); 7.5 cm and 10.5 cm in the test with beans (B) (setting [4]). Besides, the Bean overall height with beans (B) (1-Nov, after transplant) is 27 cm and 30 cm; in the test on beans (B) (9-Sep, before moving), 21 cm and 22 cm; in the test with beans (B) (19-Oct, after transplant) it was 26 cm and 28 cm; in the test on beans (B) (setting [4]), 24 cm and 26 cm.

As for `O=C[C@H](O)[C@H](O)[C@H](O)CO` [Ribose, D-ribose], in the test with bean seeds [2], the “Root Length” value was “slightly shorter in length” and the “Root Weight” value is recorded as “heavier”. For the same molecule, the “Improvement over solutions of ribose alone” value in the test with bean seeds [3] is given as “slight incremental improvements”.
